# Measurements as given in PubChem BioAssay AID330 (DTP/NCI, 2004).
# “And” between values parts separate entries of the source, which are not always exact repeats. Identical values can stand only once. Inconclusive results and toxic doses are left out. Peptide text beside a SMILES is read from it.
# Tested on: P388 leukemia ip, CD2F1 mice, survival T/C
# Test: NCI In Vivo Anticancer Drug Screen. Data for tumor model P388 Leukemia (intraperitoneal) in CD2F1 (CDF1) mice
# Details: endpoint: median survival time, higher = longer survival
# Method in brief: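 Mice carrying the transplanted tumor received test compound or vehicle. Survival was recorded in each group, and the value is the treated-group measurement divided by that of the vehicle-treated control group.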
# [1] = dose: 50.0 mg/kg/injection, schedule: Q04DX002 (ip), vehicle: saline with Tween-80
# [2] = dose: 100.0 mg/kg/injection, schedule: Q04DX002 (ip), vehicle: saline with Tween-80
# [3] = dose: 50.0 mg/kg/injection, schedule: Q01DX009 (ip), vehicle: Klucel (hydroxypropylcellulose) (HPC)
# [4] = dose: 100.0 mg/kg/injection, schedule: Q01DX009 (ip), vehicle: Klucel (hydroxypropylcellulose) (HPC)
# [5] = dose: 200.0 mg/kg/injection, schedule: Q01DX009 (ip), vehicle: Klucel (hydroxypropylcellulose) (HPC)
# [6] = dose: 100.0 mg/kg/injection, schedule: Q04DX003 (ip), vehicle: Klucel (hydroxypropylcellulose) (HPC)
# [7] = dose: 200.0 mg/kg/injection, schedule: Q04DX003 (ip), vehicle: Klucel (hydroxypropylcellulose) (HPC)
# [8] = dose: 400.0 mg/kg/injection, schedule: Q04DX003 (ip), vehicle: Klucel (hydroxypropylcellulose) (HPC)
# [9] = dose: 12.5 mg/kg/injection, schedule: Q01DX005 (ip), vehicle: Klucel (hydroxypropylcellulose) (HPC)
# [10] = dose: 25.0 mg/kg/injection, schedule: Q01DX005 (ip), vehicle: Klucel (hydroxypropylcellulose) (HPC)
# [11] = dose: 50.0 mg/kg/injection, schedule: Q01DX005 (ip), vehicle: Klucel (hydroxypropylcellulose) (HPC)
# [12] = dose: 60.0 mg/kg/injection, schedule: Q01DX005 (ip), vehicle: saline with Tween-80
# [13] = dose: 120.0 mg/kg/injection, schedule: Q01DX005 (ip), vehicle: saline with Tween-80
# [14] = dose: 240.0 mg/kg/injection, schedule: Q01DX005 (ip), vehicle: saline with Tween-80
# [15] = dose: 50.0 mg/kg/injection, schedule: Q01DX009 (ip), vehicle: saline with Tween-80
# [16] = dose: 100.0 mg/kg/injection, schedule: Q01DX009 (ip), vehicle: saline with Tween-80
# [17] = dose: 200.0 mg/kg/injection, schedule: Q04DX003 (ip), vehicle: saline with Tween-80
compound,measurement,setting,value
COc1cc2c(cc1OC)C13CCN4C(=O)C(=O)C(CC41)C1C(OCC(=O)O)CC(=O)N2C13 (configuration not stated),T/C,"dose: 60.0 mg/kg/injection, schedule: Q01DX005 (ip), vehicle: saline",101 % of control
same,T/C,"dose: 120.0 mg/kg/injection, schedule: Q01DX005 (ip), vehicle: saline",101 % of control
same,T/C,"dose: 240.0 mg/kg/injection, schedule: Q01DX005 (ip), vehicle: saline",100 % of control
CSC(/C=C1\C=CN(Cc2ccccc2)c2ccccc21)=N\S(=O)(=O)c1ccc(C)cc1,T/C,"dose: 25.0 mg/kg/injection, schedule: Q04DX002 (ip), vehicle: saline with Tween-80",102 % of control
same,T/C,[1],97 % of control
same,T/C,[2],97 % of control
CC(Cl)CN(CC(C)Cl)C(=O)Oc1ccc(CC(N)C(=O)O)cc1 (configuration not stated),T/C,[3],91 % of control
same,T/C,[4],89 % of control
same,T/C,[5],97 % of control
COC1=CC(=N/Cl)/C=CC/1=N/Cl,T/C,"dose: 6.25 mg/kg/injection, schedule: Q01DX005 (ip), vehicle: saline",115 % of control
same,T/C,"dose: 12.5 mg/kg/injection, schedule: Q01DX005 (ip), vehicle: saline",110 % of control
same,T/C,"dose: 25.0 mg/kg/injection, schedule: Q01DX005 (ip), vehicle: saline",115 % of control
CC(C)C(N)C(=O)NCC(=O)NC(CO)C(=O)NC(CCC(=O)O)C(=O)O (configuration not stated) (H-VGSE-OH; configuration not given here),T/C,"dose: 10.0 mg/kg/injection, schedule: Q01DX005 (ip), vehicle: water",100 % of control
same,T/C,"dose: 20.0 mg/kg/injection, schedule: Q01DX005 (ip), vehicle: water",102 % of control
same,T/C,"dose: 40.0 mg/kg/injection, schedule: Q01DX005 (ip), vehicle: water",100 % of control
same,T/C,"dose: 80.0 mg/kg/injection, schedule: Q01DX005 (ip), vehicle: water",97 % of control
same,T/C,"dose: 160.0 mg/kg/injection, schedule: Q01DX005 (ip), vehicle: water",104 % of control
C[C@H]1CC(c2ccc(Cl)cc2)[C@@H](c2ccccc2)C(=O)O1 (some centres not stated),T/C,[6],92 % of control
same,T/C,[7],93 % of control
same,T/C,[8],92 % of control
CC1CCC2(NC1)OC1CC3C4CCC5CC(N)CCC5(C)C4CCC3(C)C1C2C (configuration not stated),T/C,"dose: 6.25 mg/kg/injection, schedule: Q01DX009 (ip), vehicle: Klucel (hydroxypropylcellulose) (HPC)",105 % of control
same,T/C,"dose: 12.5 mg/kg/injection, schedule: Q01DX009 (ip), vehicle: Klucel (hydroxypropylcellulose) (HPC)",95 % of control
same,T/C,"dose: 25.0 mg/kg/injection, schedule: Q01DX009 (ip), vehicle: Klucel (hydroxypropylcellulose) (HPC)",106 % of control
same,T/C,[3],110 % of control
CC1CCC(C(C)C)/C(=N/NC(=O)c2cccnc2)C1 (configuration not stated),T/C,[9],100 % of control
same,T/C,[10],104 % of control
same,T/C,[11],100 % of control
O=C1C(=O)N(c2ccccc2)[C@@]2(c3ccccc3)C(=Nc3ccccc3)OC(c3ccccc3)=C12,T/C,"dose: 60.0 mg/kg/injection, schedule: Q01DX005 (ip), vehicle: Klucel (hydroxypropylcellulose) (HPC)",90 % of control
same,T/C,"dose: 120.0 mg/kg/injection, schedule: Q01DX005 (ip), vehicle: Klucel (hydroxypropylcellulose) (HPC)",90 % of control
same,T/C,"dose: 240.0 mg/kg/injection, schedule: Q01DX005 (ip), vehicle: Klucel (hydroxypropylcellulose) (HPC)",88 % of control
Nc1nc2c(nnn2C2OC(CO)C(O)C2O)c(=O)[nH]1 (configuration not stated),T/C,"dose: 50.0 mg/kg/injection, schedule: Q01DX005 (ip), vehicle: saline with Tween-80",113 % of control
same,T/C,"dose: 100.0 mg/kg/injection, schedule: Q01DX005 (ip), vehicle: saline with Tween-80",101 % of control
C=C1C(=O)OC2C1C(O)C(OC(=O)/C(C)=C/C)C(C)C1C(=O)C=C(C)C21 (configuration not stated),T/C,"dose: 6.25 mg/kg/injection, schedule: Q01DX005 (ip), vehicle: Klucel (hydroxypropylcellulose) (HPC)",107 % of control
same,T/C,[9],114 % of control
same,T/C,[10],115 % of control
COC(=O)C(C)CC(C)(CC(C)(CC(C)(C)C(=O)OC)C(=O)OC)C(=O)OC (configuration not stated) (tested in a mixture with another compound),T/C,[12],100 % of control
same,T/C,[13],96 % of control
same,T/C,[14],100 % of control
ClCCN(CCCl)c1ccc2c3c(cccc13)-c1ccccc1-2,T/C,"dose: 25.0 mg/kg/injection, schedule: Q04DX003 (ip), vehicle: saline with Tween-80",104 % of control
same,T/C,[15],154 % of control
same,T/C,[16],186 % of control
same,T/C,"dose: 132.0 mg/kg/injection, schedule: Q04DX003 (ip), vehicle: saline with Tween-80",159 % of control
same,T/C,"dose: 200.0 mg/kg/injection, schedule: Q01DX009 (ip), vehicle: saline with Tween-80",86 % of control
same,T/C,[17],177 % of control and 212 % of control
same,T/C,"dose: 300.0 mg/kg/injection, schedule: Q04DX003 (ip), vehicle: saline with Tween-80",177 % of control
NCc1c(Cl)c(Cl)c(CN)c(Cl)c1Cl,T/C,[15],91 % of control
same,T/C,"dose: 50.0 mg/kg/injection, schedule: Q04DX003 (ip), vehicle: saline with Tween-80",91 % of control
same,T/C,[16],91 % of control
same,T/C,"dose: 100.0 mg/kg/injection, schedule: Q04DX003 (ip), vehicle: saline with Tween-80",91 % of control
same,T/C,[17],87 % of control
NCC1OC(OC2C(CO)OC(OC3C(O)C(N)CC(N)C3OC3OC(CN)C(O)C(O)C3N)C2O)C(N)C(O)C1O (configuration not stated),T/C,"dose: 100.0 mg/kg/injection, schedule: Q01DX001 (ip), vehicle: saline",100 % of control
same,T/C,"dose: 200.0 mg/kg/injection, schedule: Q01DX001 (ip), vehicle: saline",96 % of control
OC1COCC2N3C(=NN12)Sc1ccccc13 (configuration not stated),T/C,"dose: 100.0 mg/kg/injection, schedule: Q04DX003 (ip), vehicle: saline",105 % of control
same,T/C,"dose: 200.0 mg/kg/injection, schedule: Q04DX003 (ip), vehicle: saline",107 % of control
same,T/C,"dose: 400.0 mg/kg/injection, schedule: Q04DX003 (ip), vehicle: saline",98 % of control
Cc1ccc([Se](=C(C(=O)c2ccccc2)C(=O)c2ccccc2)c2ccc(C)cc2)cc1,T/C,"dose: 50.0 mg/kg/injection, schedule: Q01DX009 (ip), vehicle: saline",104 % of control
same,T/C,"dose: 100.0 mg/kg/injection, schedule: Q01DX009 (ip), vehicle: saline",100 % of control
same,T/C,"dose: 200.0 mg/kg/injection, schedule: Q01DX009 (ip), vehicle: saline",104 % of control
CCN1C(=O)C(N2CCCCC2)S/C1=C\C(=O)O (configuration not stated),T/C,[3],97 % of control
same,T/C,[4],110 % of control
same,T/C,[5],107 % of control
O=C1OCCN1c1cccc2ccccc12,T/C,[12],95 % of control
same,T/C,[13],96 % of control
same,T/C,[14],93 % of control
COc1cc2c(cc1OC)[C@H]1[C@H](CO)c3ccc4c(c3CN1CC2)OCO4,T/C,[9],100 % of control
same,T/C,[10],96 % of control
same,T/C,[11],94 % of control and 96 % of control
COc1ccc(CN2COc3c(ccc4cccnc34)C2)cc1,T/C,[6],93 % of control
same,T/C,[7],93 % of control
same,T/C,[8],111 % of control
Nc1ccc2c(SCCSc3c4ccccc4nc4cc(N)ccc34)c3ccccc3nc2c1,T/C,[12],97 % of control
same,T/C,[13],100 % of control
O=C1CCCCC(=O)Nc2ccc3nc4ccccc4c(c3c2)SCCCCCCCCSc2c3ccccc3nc3ccc(cc23)N1,T/C,[12],101 % of control
same,T/C,[13],110 % of control
same,T/C,[14],91 % of control
C=C1C(=O)OC2(C)CCC1CC1OC1(C)CC/C=C(\C)CCC2OC(C)=O (configuration not stated),T/C,"dose: 37.5 mg/kg/injection, schedule: Q01DX001 (ip), vehicle: Klucel (hydroxypropylcellulose) (HPC)",94 % of control
same,T/C,"dose: 75.0 mg/kg/injection, schedule: Q01DX001 (ip), vehicle: Klucel (hydroxypropylcellulose) (HPC)",92 % of control
same,T/C,"dose: 150.0 mg/kg/injection, schedule: Q01DX001 (ip), vehicle: Klucel (hydroxypropylcellulose) (HPC)",91 % of control
same,T/C,"dose: 300.0 mg/kg/injection, schedule: Q01DX001 (ip), vehicle: Klucel (hydroxypropylcellulose) (HPC)",88 % of control
COc1nc(NC2OCC(OC(C)=O)C(OC(C)=O)C2OC(C)=O)c(N=C(C)C(C)=O)c(=O)n1C (configuration not stated),T/C,[12],86 % of control
same,T/C,[13],92 % of control
same,T/C,[14],94 % of control
COC(=O)C1c2ccccc2CC(=O)N1NC(C)=O (configuration not stated),T/C,[3],104 % of control
same,T/C,[4],101 % of control
COc1ccc(C2(c3ccc(OC)cc3)N=C(n3nc(C)cc3C)NC2=O)cc1,T/C,[1],94 % of control
same,T/C,[2],98 % of control
same,T/C,"dose: 200.0 mg/kg/injection, schedule: Q04DX002 (ip), vehicle: saline with Tween-80",94 % of control
